{"source": "patent US10507247B2", "about": "“Optical probes for matrix metalloproteinases” (The University Court of the University of Edinburgh, priority 2015, dated 2019)", "key": {"MMP-12": {"target": "T1, MMP-12 (Homo sapiens, UniProt P39900)", "T1 construct": "Recombinant human catalytic domain MMPs-1, -2, -3, -7, -8, -9, -10, -11, -12, -13 were used at 30 nM; purchased Enzo Life Sciences", "T1 sequence (P39900 106-263 limits assumed)": "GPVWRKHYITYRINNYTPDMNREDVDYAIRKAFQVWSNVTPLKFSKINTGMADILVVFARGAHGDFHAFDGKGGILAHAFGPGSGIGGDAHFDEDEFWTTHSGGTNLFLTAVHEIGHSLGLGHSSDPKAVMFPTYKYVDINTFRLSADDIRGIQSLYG", "assay": "Enzyme assay, fold change in probe fluorescence over background with MMP-12", "assay_type": "biochemical", "settings": "FRET monomers; recombinant human catalytic domain MMP at 30 nM; ex/em 485/528 nm", "method": "(§1) Enzyme specificity of the lead probes with exogenous enzymes was tested using a multiwell plate fluorimeter at excitation/emission 485/528 nm (Table 3). Recombinant human catalytic domain MMPs-1, -2, -3, -7, -8, -9, -10, -11, -12, -13 were used at 30 nM. Cleavage site for each sequence is indicated in italics.\n(§2) The enzyme assays were run in a 384-well format on a PCR opaque microplate (Thermo Scientific). All dilutions and reactions were prepared in MMP buffer (50 mM Tris, 10 mM CaCl2, 0.15M NaCl, 0.05% Brij-35, pH 7). Proteolytic activity was determined by calculating the fold change in fluorescence over background signal provided by the corresponding dilution of the probe and/or inhibitors with exogenous enzymes using a-multiwell plate fluorimeter (Synergy H1 Hybrid Reader, BioTek instruments Ltd) at excitation/emission 485/528 nm. Recombinant human MMPs (Catalytic domain MMP-1, -2, -3, -7, -8, -9, -10, -11, -12, -13 (Enzo Life Sciences) and Full-length MMP-2, -9, -12 and -13 (Merck/Millipore)) were used at 30 nM. Pro-MMP-13 (R & D Systems) was activated by incubating with 1 mM 4-aminophenylmercunc acetate (APMA) for 2 hrs at 37° C. Human neutrophil elastase (Elastase Product Company, used at 2.5 ug/ml), neutrophil lysate (lysed human neutrophils), and recombinant human Thrombin (Sigma-Aldrich, used at 5 U/ml), Plasmin (Sigma-Aldrich, used at 30 nM) and Factor Xa (Sigma-Aldrich, used at 0.5 μM) were used to identify the lead molecular probe sequences. For inhibition assays, enzyme and inhibitor were pre-incubated for 1 hr at 37° C. before the addition of molecular probe."}, "MMP-13 [1]": {"target": "MMP-13 (Homo sapiens, UniProt P45452)", "assay": "Enzyme assay, fold change in probe fluorescence over background with MMP-13", "assay_type": "biochemical", "parameters": "purchased Enzo Life Sciences (catalytic domain); Merck/Millipore (full-length)", "settings": "FRET monomers; recombinant human catalytic domain MMP at 30 nM; ex/em 485/528 nm", "method": "as §1\n(§3) The different compounds were also evaluated according to the fold change in fluorescent signal in presence of MMP-9 and MMP-13, and the results are shown in Table 7. From this comparison, the FRET dendrimers comprising SEQ ID NO.1 and SEQ ID NO.7 (AMF-106 and SVC-186) together with the 9Dendrimer comprising SEQ ID NO.7 (SVC-196) were chosen for further evaluation. These dendrimers are shown in FIG. 7, probe A (AMF-106), probe B (SVC-186) and probe C (SVC-196).\nas §2"}, "MMP-2": {"test_system": "MMP-2", "sequence (P08253 with tags, fused parts or gaps DEL222-396 limits assumed)": "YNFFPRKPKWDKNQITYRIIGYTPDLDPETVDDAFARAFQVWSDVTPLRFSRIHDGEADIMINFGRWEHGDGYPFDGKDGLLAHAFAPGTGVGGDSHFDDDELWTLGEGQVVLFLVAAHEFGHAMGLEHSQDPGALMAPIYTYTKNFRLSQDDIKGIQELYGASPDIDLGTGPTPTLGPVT", "assay": "Enzyme assay, fold change in probe fluorescence over background with MMP-2", "assay_type": "biochemical", "settings": "FRET monomers; recombinant human catalytic domain MMP at 30 nM; ex/em 485/528 nm", "method": "as §1, §2"}, "MMP-9": {"test_system": "MMP-9", "assay": "Enzyme assay, fold change in probe fluorescence over background with MMP-9", "assay_type": "biochemical, human", "settings": "for MMP-9 (39.0 kDa), fold change in fluorescence over background: FRET monomers, recombinant human catalytic domain MMP at 30 nM, ex/em 485/528 nm; for MMP-9 (83 kDa), fold change in fluorescent signal: different probe scaffolds (monomer, dendrimers)", "method": "A library of probes (listed in Table 2 below) containing FAM (Carboxyfluorescein) as the fluorophore (donor) and MethylRed (MR) as the quencher (acceptor) and a variety of peptide sequences was synthesized by manual standard solid-phase Fmoc peptide chemistry (described below).\nas §1, §3, §2"}, "Thrombin": {"target": "T2, Thrombin (Homo sapiens, UniProt P00734)", "T2 construct": "purchased Sigma-Aldrich", "assay": "Enzyme assay, fold change in probe fluorescence with Thrombin", "assay_type": "biochemical", "settings": "recombinant human Thrombin 5 U/ml; ex/em 485/528 nm", "method": "as §1, §2"}, "MMP-13 [2]": {"test_system": "MMP-13", "assay": "Enzyme assay, fold change in probe fluorescence over background with MMP-13", "assay_type": "biochemical, human", "settings": "different probe scaffolds (monomer, dendrimers); MMP-13 52 kDa", "method": "as §1, §3, §2"}, "plasmin": {"target": "T3, plasmin (Homo sapiens, UniProt P00747)", "T3 construct": "purchased Sigma-Aldrich", "T3 sequence (P00747 581-810 limits assumed)": "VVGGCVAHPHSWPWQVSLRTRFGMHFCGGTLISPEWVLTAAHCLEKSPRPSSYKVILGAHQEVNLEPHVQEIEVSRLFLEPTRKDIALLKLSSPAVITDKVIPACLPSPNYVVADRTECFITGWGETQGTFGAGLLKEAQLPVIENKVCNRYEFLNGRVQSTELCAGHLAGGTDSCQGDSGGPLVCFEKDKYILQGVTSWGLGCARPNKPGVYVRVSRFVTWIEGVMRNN", "T3 sequence (P00747 97-580 partner limits assumed)": "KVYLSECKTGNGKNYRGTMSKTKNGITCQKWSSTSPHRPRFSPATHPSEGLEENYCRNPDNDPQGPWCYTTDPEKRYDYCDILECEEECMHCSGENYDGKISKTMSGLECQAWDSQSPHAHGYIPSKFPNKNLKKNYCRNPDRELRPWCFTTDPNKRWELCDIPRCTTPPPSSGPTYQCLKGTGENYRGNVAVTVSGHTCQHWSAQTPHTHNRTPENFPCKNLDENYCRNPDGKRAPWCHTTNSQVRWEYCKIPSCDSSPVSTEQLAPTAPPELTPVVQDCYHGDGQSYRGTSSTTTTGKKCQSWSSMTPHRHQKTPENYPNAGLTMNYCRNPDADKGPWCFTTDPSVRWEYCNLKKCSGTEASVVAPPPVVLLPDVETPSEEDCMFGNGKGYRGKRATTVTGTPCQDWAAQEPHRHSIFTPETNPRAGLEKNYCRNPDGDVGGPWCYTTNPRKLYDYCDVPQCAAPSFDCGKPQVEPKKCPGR", "assay": "Susceptibility / stability of probes to plasmin", "assay_type": "biochemical", "method": "(§4) FIG. 8. Enzyme specificity of the FRET branched probes A, B and C. Data represents the average fold change in fluorescence over background signal provided by probe (10 μM) with exogenous enzymes using a multiwell plate fluorimeter (Synergy H1 Hybrid Reader, BioTek instruments Ltd) at excitation/emission 485/528 nm. Recombinant human catalytic domain MMPs-1, -2, -3, -7, -8, -9, -10, -11, -12, -13 were used at 30 nM. Recombinant human Thrombin, Plasmin and Factor Xa were used at 5 U/ml, 30 nM, 0.5 μM, respectively.\nAlso, to reduce degradation without altering the amino acid constituents we have synthesised variants including PEG units at the amino and/or carboxy termini in order to block degradation from the ends of the peptide sequence.\n(§5) Three selected probes (A: AMF-106, B: SVC-186 B, and C: SVC-196) were evaluated in vitro in a new experiment including other members of the MMP family (MMPs-1, -2, -3, -7, -8, -9, -10, -11, -12, -13) as well as Thrombin, Plasmin and Factor Xa, and the results are shown in FIG. 8. […] The plasmin cleavage site was identified and attempts to make a resistant version replacing with D-aa in these positions were unsuccessful.\nas §2, with “Human neutrophil elastase (Elastase Product Company, used at 2.5 ug/ml), neutrophil lysate (lysed human neutrophils), and recombinant human Thrombin (Sigma-Aldrich, used at 5 U/ml), Plasmin (Sigma-Aldrich, used at 30 nM) and Factor Xa (Sigma-Aldrich, used at 0.5 μM) were used to identify the lead molecular probe sequences. For inhibition assays, enzyme and inhibitor were pre-incubated for 1 hr at 37° C. before the addition of molecular probe.” left out"}, "MMP-2/9/13 in the lung": {"test_system": "MMP-2/9/13 in the lung", "assay": "Ex vivo and in vivo ovine lung and human lung tissue imaging by fCFM", "settings": "lung environment", "method": "All compounds have undergone biological assessment. For stability we have assessed each compound in the presence of 0.9% NaCl (Saline) or pooled lavage fluid from patients with acute lung injury and analysed by matrix-assisted laser desorption/ionization (MALDI) or fourier transform mass spectrometry (FTMS). In vitro activation was assessed on benchtop confocal in the presence of compound with lung tissue samples. For the ex vivo and in vivo ovine lung (FIG. 11) and human lung tissue experiments (FIG. 12) each compound was assessed in a control lung segment (instilled with 2 ml PBS) or a fibrotic/cancer segment, the compound was administered to the segment of interest and this was imaged by probe based fCFM."}, "[3]": {"test_system": "MMPs-1, -2, -3, -7, -8, -9, -10, -11, -12, -13, Thrombin, Plasmin and Factor Xa", "assay": "Enzyme specificity of the FRET branched probes with exogenous enzymes (FIG. 8)", "assay_type": "biochemical, human", "settings": "probe 10 μM; MMPs 30 nM; Thrombin 5 U/ml, Plasmin 30 nM, Factor Xa 0.5 μM", "method": "as §4, §5, §2"}, "MMP": {"test_system": "MMP", "assay": "Activation of probe variants by MMP in vitro", "assay_type": "biochemical", "settings": "additional quencher per probe element", "method": "The selectivity of the probes, together with further probes AMF-14b, SVC-030 (both defined in Table 6 below) and SVC-068 (defined in Table 4 below), to detect MMP over elastase, another proteinase relevant in lung disease, was tested and the results for all probes are shown in FIG. 2.\nVariants consisting of D-amino acids at the recognition site sequence with or without blocking PEG units were also synthesised and assessed.\nas §2"}}, "note": "Primed or numbered codes have the meaning given here. [ ]: non-standard residue; d: D form. The star is where a group is joined. 5FAM = O=C1OC2(c3ccc(O)cc3Oc3cc(O)ccc32)c2ccc(C(=O)*)cc21; PEG2′ = PEG spacer unit (glycol linker); K(MR) = not defined here; Nle = CCCC[C@H](N)C(=O)O; βAla = NCCC(=O)O"}
{"substance": "FAM-PEG2-P-F-G-M-K-βA-K(MR)-NH2 [SVC-16]", "values": [{"measurement": "MMP-12 (20.3 kDa), fold change in fluorescence over background", "setting": "MMP-12", "result": 1.88}, {"measurement": "MMP-13 (20.4 kDa), fold change in fluorescence over background", "setting": "MMP-13 [1]", "result": 13.57}, {"measurement": "MMP-2 (20.3 kDa), fold change in fluorescence over background", "setting": "MMP-2", "result": 3.11}, {"measurement": "MMP-9 (39.0 kDa), fold change in fluorescence over background", "setting": "MMP-9", "result": 5.21}, {"measurement": "Inflammatory mediators: Thrombin, fold change in fluorescence over background", "setting": "Thrombin", "result": 0.99}]}
{"substance": "FAM-PEG2-P-F-G-Nle-K-βA-K(MR)-K-K-PEG2-PEG2-NH2 [AMF-92]", "values": [{"measurement": "MMP-13 (52 kDa), fold change in fluorescent signal", "setting": "MMP-13 [2]", "result": 19.30}, {"measurement": "MMP-9 (83 kDa), fold change in fluorescent signal", "setting": "MMP-9", "result": 4.75}]}
{"substance": "FAM-PEG2-P-F-G-Nle-K-βA-K(MR)-NH2 [AMF-25]", "values": [{"measurement": "MMP-12 (20.3 kDa), fold change in fluorescence over background", "setting": "MMP-12", "result": 1.53}, {"measurement": "MMP-13 (20.4 kDa), fold change in fluorescence over background", "setting": "MMP-13 [1]", "result": 5.27}, {"measurement": "MMP-2 (20.3 kDa), fold change in fluorescence over background", "setting": "MMP-2", "result": 1.88}, {"measurement": "MMP-9 (39.0 kDa), fold change in fluorescence over background", "setting": "MMP-9", "result": 2.02}, {"measurement": "Inflammatory mediators: Thrombin, fold change in fluorescence over background", "setting": "Thrombin", "result": 0.96}]}
{"substance": "FAM-PEG2-PFGNleKβA-K(MR)-PEG2-k-PEG2-k-3 probe elements ({5FAM-PEG2′}-PFG[Nle]K[βAla]-{K(MR)-PEG2′-code k-PEG2′-code k}; reading uncertain; also: three probe elements on a scaffold) [SVC-186]", "values": [{"measurement": "stability / susceptibility to plasmin", "setting": "plasmin; listed as Probe B", "result": "plasmin resistant"}, {"measurement": "stability / susceptibility to plasmin", "setting": "plasmin; listed as SVC-01-186", "result": "stable"}, {"measurement": "MMP-13 (52 kDa), fold change in fluorescent signal", "setting": "MMP-13 [2]", "result": 26.65}, {"measurement": "activation in the presence of MMP-2/9/13 in the lung", "setting": "MMP-2/9/13 in the lung", "result": "able to activate"}, {"measurement": "selectivity for MMP-2/9", "setting": "[3]", "result": "better selectivity for MMP-2/9"}, {"measurement": "MMP-9 (83 kDa), fold change in fluorescent signal", "setting": "MMP-9", "result": 6.49}]}
{"substance": "FAM-PEG2-PFGNleKβA-K[K(MR)2]-PEG2-k-PEG2-k-3 probe elements [SVC-195]", "values": [{"measurement": "signal-to-noise ratio", "setting": "MMP", "result": "did not further improved"}, {"measurement": "MMP-13 (52 kDa), fold change in fluorescent signal", "setting": "MMP-13 [2]", "result": 9.00}, {"measurement": "MMP-9 (83 kDa), fold change in fluorescent signal", "setting": "MMP-9", "result": 4.84}]}
{"substance": "FAM-PEG2-PFGNleKβA-PEG2-k-PEG2-k-3 probe elements [SVC-188]", "values": [{"measurement": "MMP-13 (52 kDa), fold change in fluorescent signal", "setting": "MMP-13 [2]", "result": 1.80}, {"measurement": "MMP-9 (83 kDa), fold change in fluorescent signal", "setting": "MMP-9", "result": 1.41}]}
{"substance": "MR-K(Ac)-PEG2-GPKGLKG-K(FAM)-PEG2-k-PEG2-k-PEG2-k-NH2 [AMF-111]", "values": [{"measurement": "MMP-13 (52 kDa), fold change in fluorescent signal", "setting": "MMP-13 [2]", "result": 10.57}, {"measurement": "MMP-9 (83 kDa), fold change in fluorescent signal", "setting": "MMP-9", "result": 3.66}]}
